The values that follow come from paper PMC7703574 (Journal of medicinal chemistry, 2020).

The test system of one data set is HIV-1 Env pseudoviruses. The conditions noted are these: despite low nanomolar potency; cited from earlier work.
The conditions of data set [1]: phosphate buffer, pH7.4; cited from earlier work.
A further data set relates to Caco-2 cell monolayer. The conditions noted are these: no inhibitor; cited from earlier work.
A short description of data set [2]: Cytotoxicity in TZM-bl cells. The settings on record: human. The format is cell-based.
Another data set concerns VSV-G pseudovirus. The format is cell-based. The conditions noted are these: control for HIV-1 specificity.
In the next data set the test system is U87-CD4-CXCR4 cells. The data set can be described thus: Cytotoxicity in U87-CD4-CXCR4 cells. The data set is classed as cell-based. The conditions noted are these: at the doses used for this assay.
A further data set concerns Cf2Th-CCR5 cells. The data set can be described thus: Cytotoxicity in Cf2Th-CCR5 cells. The format is cell-based.
Data set [3] can be described thus: Metabolic stability in human liver microsomes. The format is in vitro ADME.
In another data set the test system is CYP3A. The data set can be described thus: Cytochrome P450 inhibition CYP3A. The format is in vitro ADME. The settings on record: human.
Another data set deals with CYP450 enzymes. The experiment in a line: Cytochrome P450 inhibition, set of CYP450 enzymes. The format is in vitro ADME.

In general, solubility refers to how much of the substance goes into solution per volume. Usually CC50 stands for the concentration that lowers cell viability or growth by half. Low readings indicate greater toxicity to the cells, high ones lower toxicity to the cells. For orientation: microsomal CLint means the rate of metabolic loss divided by the concentration. A higher microsomal CLint goes with faster metabolism. A word on the IC50: it is the concentration that inhibits the measured activity by half. Read a high IC50 as a need for much substance.

Take `COc1ccnc2[nH]cc(C(=O)C(=O)N3CCN(C(=O)c4ccccc4)C[C@H]3C)c12` [BMS-378806, 4-benzoyl-1-[(4-methoxy-1H-pyrrolo-[2,3-b]pyridin-3-yl)oxoacetyl]-2-(R)-methylpiperazine]: in the data set with HIV-1 Env pseudoviruses, the “activity against A, C, and D subtypes” value is “weaker activity”.
As to `COc1cnc(-n2cnc(C)n2)c2[nH]cc(C(=O)C(=O)N3CCN(C(=O)c4ccccc4)CC3)c12` [BMS-626529], the solubility in [1] is 47 to 237 µg/mL. For the same compound, in the data set with Caco-2 cell monolayer, the “Caco-2 permeability mean Papp A-to-B” value was 9.27 ×10⁻⁶ cm/s and the “Caco-2 permeability mean Papp B-to-A” value is 32 ×10⁻⁶ cm/s.
In turn, `NC[C@H](NC(=O)c1ccc(-c2ccc(C(F)(F)F)cn2)[nH]1)c1ncc(CO)s1` [Compound 6, N-(2-Amino-1-(5-(hydroxymethyl)thiazol-2-yl)ethyl)-5-(5-(trifluoromethyl)pyridin-2-yl)-1H-pyrrole-2-carboxamide] had a CC50 at 3 d in [2] greater than 122 µM.
In the case of `Cc1cc(-c2ccc(C(F)(F)F)cn2)[nH]c1C(=O)N[C@@H](CN)c1ncc(CO)s1` [Compound 8, N-(2-Amino-1-(5-(hydroxymethyl)thiazol-2-yl)ethyl)-3-methyl-5-(5-(trifluoromethyl)pyridin-2-yl)-1H-pyrrole-2-carboxamide], in the data set with VSV-G pseudovirus, the “activity against the pseudovirus VSV-G” value is given as “poorly active”. The “toxicity in the U87-CD4-CXCR4 cell line” value in the data set on U87-CD4-CXCR4 cells is “did not induce toxicity”. In the data set with Cf2Th-CCR5 cells, the “toxicity at the doses used in this assay” value was “did not show toxicity”. Besides, the intrinsic clearance (microsomal CLint) in data set [3] was less than 11.6 µL/min/mg. In addition, the IC50 in the data set with CYP3A (probe midazolam) was greater than 100 µM; in the data set with CYP3A (probe testosterone), greater than 62.2 µM. Moreover, in the data set with CYP450 enzymes (at greater than 50 μM dose levels), the “inhibition of CYP1A2, CYP2B6, and CYP3A” value is given as “no inhibition”. Also, the “inhibition of the other CYP450 enzymes” value in the data set on CYP450 enzymes (at the 100 μM dose level) is given as “No inhibitory activities”.
In [2], `NC[C@@H](NC(=O)c1ccc(-c2ccc(C(F)(F)F)cn2)[nH]1)c1ncc(C(O)CO)s1` (stereo partly shown) [Compound 13, N-(2-Amino-1-(5-(1,2-dihydroxyethyl)thiazol-2-yl)ethyl)-5-(5-(trifluoromethyl)pyridin-2-yl)-1H-pyrrole-2-carboxamide] showed a CC50 at 3 d greater than 113 µM.
The same measure, in the same setting: for `NC[C@H](NC(=O)c1ccc(-c2ccc(Cl)cn2)[nH]1)c1nc(CO)cs1` [Compound 16, N-(2-Amino-1-(4-(hydroxymethyl)thiazol-2-yl)ethyl)-5-(5-chloropyridin-2-yl)-1H-pyrrole-2-carboxamide] the value was greater than 132 µM.
Consider `NC[C@@H](NC(=O)c1ccc(-c2ccc(F)cn2)[nH]1)c1nc(CO)cs1` [Compound 17, N-(2-Amino-1-(4-(hydroxymethyl)thiazol-2-yl)ethyl)-5-(5-fluoropyridin-2-yl)-1H-pyrrole-2-carboxamide], for which the 50% cytotoxic concentration (CC50) at 3 d in data set [2] is greater than 138 µM.
For `Cc1ccc(-c2ccc(C(=O)N[C@H](CN)c3nc(CO)cs3)[nH]2)nc1` [Compound 19, N-(2-Amino-1-(4-(hydroxymethyl)thiazol-2-yl)ethyl)-5-(5-methylpyridin-2-yl)-1H-pyrrole-2-carboxamide], in data set [2], the 50% cytotoxic concentration (CC50) at 3 d is greater than 140 µM.
On the same count and under the same terms, as for `NC[C@@H](NC(=O)c1ccc(-c2ccc(C(F)(F)F)cn2)[nH]1)c1nc(C(O)CO)cs1` (stereo partly shown) [Compound 29, N-(2-Amino-1-(4-(1,2-dihydroxyethyl)thiazol-2-yl)ethyl)-5-(5-(trifluoromethyl)pyridin-2-yl)-1H-pyrrole-2-carboxamide], the figure is greater than 113 µM.
Consider `Cc1cc(-c2ccc(C(F)(F)F)cn2)[nH]c1C(=O)N[C@H](CN)c1nc(CO)cs1` [Compound 33, N-(2-Amino-1-(4-(hydroxymethyl)thiazol-2-yl)ethyl)-3-methyl-5-(5-(trifluoromethyl)pyridin-2-yl)-1H-pyrrole-2-carboxamide], for which it took 85 ± 3 µM to reach half-maximal cytotoxicity in data set [2] (CC50 at 72 h). The “activity against the pseudovirus VSV-G” value in the data set on VSV-G pseudovirus is recorded as “poorly active”. For the same compound, in the data set on U87-CD4-CXCR4 cells, the “toxicity in the U87-CD4-CXCR4 cell line” value is given as “did not induce toxicity”. Also, the “toxicity at the doses used in this assay” value in the data set with Cf2Th-CCR5 cells is “did not show toxicity”.
`NC[C@H](NC(=O)c1ccc(-c2ccc(C(F)(F)F)cn2)[nH]1)c1nc(CO)c(CO)s1` [Compound 36, N-(2-Amino-1-(4,5-bis(hydroxymethyl)thiazol-2-yl)ethyl)-5-(5-(trifluoromethyl)pyridin-2-yl)-1H-pyrrole-2-carboxamide] showed a CC50 at 3 d in [2] greater than 113 µM.
Take `NC[C@@H](NC(=O)c1ccc(-c2ccc(Cl)nc2)[nH]1)c1nc(CO)cs1` [Compound 39, N-(2-Amino-1-(4-(hydroxymethyl)thiazol-2-yl)ethyl)-5-(6-chloropyridin-3-yl)-1H-pyrrole-2-carboxamide]: the CC50 at 3 d in [2] is greater than 132 µM.
On the same count and under the same terms, as for `NC[C@@H](NC(=O)c1ccc(-c2ccc(C(F)(F)F)nc2)[nH]1)c1nc(CO)cs1` [Compound 41, N-(2-Amino-1-(4-(hydroxymethyl)thiazol-2-yl)ethyl)-5-(6-(trifluoromethyl)pyridin-3-yl)-1H-pyrrole-2-carboxamide], the figure is greater than 122 µM; as for `NC[C@H](NC(=O)c1ccc(-c2ccc(C(F)(F)F)nn2)[nH]1)c1nc(CO)cs1` [Compound 44, N-(2-Amino-1-(4-(hydroxymethyl)thiazol-2-yl)ethyl)-5-(6-(trifluoromethyl)pyridazin-3-yl)-1H-pyrrole-2-carboxamide], greater than 73 µM; as for `NC[C@@H](NC(=O)c1ccc(-c2ncc(Cl)cn2)[nH]1)c1nc(CO)cs1` [Compound 45, N-(2-Amino-1-(4-(hydroxymethyl)thiazol-2-yl)ethyl)-5-(5-chloropyrimidin-2-yl)-1H-pyrrole-2-carboxamide], greater than 66 µM.
Regarding `COc1cc(-c2ccc(C(=O)N[C@H](CN)c3nc(CO)cs3)[nH]2)ccn1` [Compound 47, N-(2-Amino-1-(4-(hydroxymethyl)thiazol-2-yl)ethyl)-5-(2-methoxypyridin-4-yl)-1H-pyrrole-2-carboxamide], the 50% cytotoxic concentration (CC50) at 3 d in data set [2] was greater than 133 µM.
